This note sets out measurements from ChEMBL document CHEMBL1153872, “Synthesis, analgesic, anti-inflammatory and antimicrobial studies of 2,4-dichloro-5-fluorophenyl containing thiazolotriazoles” (2009).

Format in all cases: functional
In assay [1] the test system is Pseudomonas aeruginosa. As to the kind of experiment: Antibacterial activity against Pseudomonas aeruginosa after 24 hrs by disk diffusion method. (A growth-free zone around the sample is the usual read-out of agar diffusion tests.)
In assay [2] the test system is Mus musculus. As to the kind of experiment: Analgesic activity in albino mouse assessed as response latency time to pain stimulus at 25 mg/kg, po after 1 hr by hot plate method. Set-up: unit not given here.
For assay [3], the system named is Aspergillus niger. Put plainly: Antifungal activity against Aspergillus niger after 48 hrs by twofold broth dilution method. On the technique in general: In broth dilution the organism is exposed to a series of concentrations in liquid medium.
For assay [4], the system named is Aspergillus niger. As to the kind of experiment: Antifungal activity against Aspergillus niger after 3 to 4 days by agar diffusion method.
For assay [5], the system named is Escherichia coli. Put plainly: Antibacterial activity against Escherichia coli after 24 hrs by disk diffusion method.
The test system of assay [6] is Escherichia coli. As to the kind of experiment: Antibacterial activity against Escherichia coli after 24 hrs by broth dilution technique.
Assay [7] relates to Streptococcus pyogenes. As to the kind of experiment: Antibacterial activity against Streptococcus pyogenes after 24 hrs by broth dilution technique.
Assay [8] relates to Trichophyton mentagrophytes. As to the kind of experiment: Antifungal activity against Trichophyton mentagrophytes after 48 hrs by twofold broth dilution method.
Assay [9] concerns Klebsiella pneumoniae. Put plainly: Antibacterial activity against Klebsiella pneumoniae after 24 hrs by broth dilution technique.
Assay [10] relates to Aspergillus fumigatus. Put plainly: Antifungal activity against Aspergillus fumigatus after 48 hrs by twofold broth dilution method.
The test system of assay [11] is Mus musculus. Put plainly: Analgesic activity in albino mouse assessed as response latency time to pain stimulus at 25 mg/kg, po after 3 hrs by hot plate method. Set-up: unit not given here. For orientation: Hot-plate and tail-flick tests time the reaction to a heat stimulus.
The subject of assay [12] is Klebsiella pneumoniae. As to the kind of experiment: Antibacterial activity against Klebsiella pneumoniae after 24 hrs by disk diffusion method.
In assay [13] the test system is Pseudomonas aeruginosa. As to the kind of experiment: Antibacterial activity against Pseudomonas aeruginosa after 24 hrs by broth dilution technique.
Assay [14] has as its system Candida albicans. As to the kind of experiment: Antifungal activity against Candida albicans after 48 hrs by twofold broth dilution method.
The test system of assay [15] is Trichophyton mentagrophytes. Put plainly: Antifungal activity against Trichophyton mentagrophytes after 3 to 4 days by agar diffusion method.
In assay [16] the test system is Staphylococcus aureus. Put plainly: Antibacterial activity against Staphylococcus aureus after 24 hrs by disk diffusion method.
The subject of assay [17] is Aspergillus fumigatus. As to the kind of experiment: Antifungal activity against Aspergillus fumigatus after 3 to 4 days by agar diffusion method.
Assay [18] relates to Talaromyces marneffei. Put plainly: Antifungal activity against Penicillium marneffei after 48 hrs by twofold broth dilution method.
The next assay relates to Rattus norvegicus. As to the kind of experiment: Antiinflammatory activity in Wister albino rat assessed as inhibition of carrageenan-induced paw edema at 50 mg/kg, po administered 30 mins before carrageenan challenge measured after 3 hrs relative to control.
The test system of assay [19] is Staphylococcus aureus. Put plainly: Antibacterial activity against Staphylococcus aureus after 24 hrs by broth dilution technique.
The test system of assay [20] is Streptococcus pyogenes. As to the kind of experiment: Antibacterial activity against Streptococcus pyogenes after 24 hrs by disk diffusion method.
Assay [21] has as its system Candida albicans. Put plainly: Antifungal activity against Candida albicans after 3 to 4 days by agar diffusion method.
Assay [22] concerns Talaromyces marneffei. As to the kind of experiment: Antifungal activity against Penicillium marneffei after 3 to 4 days by agar diffusion method.

Where only a bound is given, the exact number is not on record here.

Regarding `Cc1ccc(-c2csc3nc(-c4cc(F)c(Cl)cc4Cl)nn23)cc1`, the “Diameter of inhibition zone” value with Pseudomonas aeruginosa [1] was 14 mm; with Aspergillus niger [4], 11 mm; with Escherichia coli [5] it was 13 mm; with Klebsiella pneumoniae [12], 15 mm; in assay [15], 8 mm; in the assay with Staphylococcus aureus [16], 15 mm. Also, the “Diameter of inhibition zone” value with Aspergillus fumigatus [17] was found to be 16 mm; in the assay on Streptococcus pyogenes [20], 14 mm. In addition, the results for the Time in the assay with Mus musculus [2] and with Mus musculus [11] were 8.2 and 8.4, respectively. The MIC against Aspergillus niger [3] is reported as 12.5 microg/cm3; against Escherichia coli [6], 12.5 microg/cm3; against Streptococcus pyogenes [7], 12.5 microg/cm3; in assay [8] it was 25 microg/cm3; in the assay on Klebsiella pneumoniae [9] it was 6.25 microg/cm3; in the assay with Aspergillus fumigatus [10], 6.25 microg/cm3. Further, the MIC with Pseudomonas aeruginosa [13] is on record as 6.25 microg/cm3; in the assay with Candida albicans [14], greater than 100 microg/cm3; in the assay on Talaromyces marneffei [18], greater than 100 microg/cm3; in the assay with Staphylococcus aureus [19] it was 6.25 microg/cm3. The inhibition in vivo at 50 mg/kg in the assay on Rattus norvegicus stood at 0%.

With `O=[N+]([O-])c1ccc(-c2csc3nc(-c4cc(F)c(Cl)cc4Cl)nn23)cc1`, the “Diameter of inhibition zone” value amounted to 15 mm with Pseudomonas aeruginosa [1]; 16 mm in the assay on Candida albicans [21]; 15 mm in the assay with Escherichia coli [5]; 11 mm in the assay on Klebsiella pneumoniae [12]; 10 mm in assay [15]; 12 mm with Staphylococcus aureus [16]. Also, the “Diameter of inhibition zone” value in the assay on Aspergillus fumigatus [17] is 17 mm; in the assay with Streptococcus pyogenes [20], 12 mm; with Talaromyces marneffei [22], 18 mm. Also, the Time is reported as 11.2 with Mus musculus [2] and 10.9 with Mus musculus [11]. Further, the MIC in the assay with Aspergillus niger [3] was greater than 100 microg/cm3; against Escherichia coli [6], 6.25 microg/cm3; against Streptococcus pyogenes [7] it was 12.5 microg/cm3; in [8] it was 25 microg/cm3; in the assay with Klebsiella pneumoniae [9], 12.5 microg/cm3; in the assay with Aspergillus fumigatus [10], 6.25 microg/cm3. Further, the MIC against Pseudomonas aeruginosa [13] is 6.25 microg/cm3; with Candida albicans [14] it was 6.25 microg/cm3; against Talaromyces marneffei [18], 6.25 microg/cm3; against Staphylococcus aureus [19], 12.5 microg/cm3. The inhibition in vivo at 50 mg/kg with Rattus norvegicus is 10.9%.

On to `Fc1cc(-c2nc3scc(-c4ccc(Br)cc4)n3n2)c(Cl)cc1Cl`, for which the “Diameter of inhibition zone” value in the assay on Pseudomonas aeruginosa [1] came to 29 mm; in the assay with Candida albicans [21], 14 mm; in the assay with Aspergillus niger [4], 9 mm; in the assay on Escherichia coli [5] it was 24 mm; with Klebsiella pneumoniae [12] it was 19 mm; with Staphylococcus aureus [16], 21 mm. The “Diameter of inhibition zone” value with Aspergillus fumigatus [17] is listed as 12 mm; in the assay on Streptococcus pyogenes [20] it was 25 mm; in the assay on Talaromyces marneffei [22], 10 mm. Further, the Time in the assay with Mus musculus [2] stood at 14.8; in the assay with Mus musculus [11] it was 13.9. In addition, the MIC against Aspergillus niger [3] is recorded as 25 microg/cm3; in the assay with Escherichia coli [6], 6.25 microg/cm3; in the assay on Streptococcus pyogenes [7], 6.25 microg/cm3; in assay [8] it was greater than 100 microg/cm3; against Klebsiella pneumoniae [9], 6.25 microg/cm3; in the assay with Aspergillus fumigatus [10] it was 12.5 microg/cm3. In addition, the MIC in the assay with Pseudomonas aeruginosa [13] stood at 6.25 microg/cm3; in the assay with Candida albicans [14], 12.5 microg/cm3; against Talaromyces marneffei [18] it was 25 microg/cm3; against Staphylococcus aureus [19] it was 6.25 microg/cm3. In addition, the inhibition in vivo at 50 mg/kg with Rattus norvegicus is 25%.

As to `COc1ccc(-c2csc3nc(-c4cc(F)c(Cl)cc4Cl)nn23)cc1`, the “Diameter of inhibition zone” value was found to be 30 mm in the assay with Pseudomonas aeruginosa [1]; 17 mm in the assay on Candida albicans [21]; 20 mm in the assay with Aspergillus niger [4]; 25 mm with Escherichia coli [5]; 19 mm in the assay on Klebsiella pneumoniae [12]; 14 mm in assay [15]. Moreover, the “Diameter of inhibition zone” value with Staphylococcus aureus [16] turned out to be 21 mm; in the assay on Streptococcus pyogenes [20], 23 mm; in the assay on Talaromyces marneffei [22], 17 mm. Besides, the Time with Mus musculus [2] was 11.1; with Mus musculus [11] it was 11.96. For the same compound, the MIC is recorded as 6.25 microg/cm3 in the assay with Aspergillus niger [3]; 6.25 microg/cm3 in the assay with Escherichia coli [6]; 6.25 microg/cm3 in the assay on Streptococcus pyogenes [7]; 12.5 microg/cm3 in assay [8]; 6.25 microg/cm3 in the assay on Klebsiella pneumoniae [9]; greater than 100 microg/cm3 against Aspergillus fumigatus [10]. Besides, the MIC with Pseudomonas aeruginosa [13], with Candida albicans [14], in the assay on Talaromyces marneffei [18] and against Staphylococcus aureus [19] was 6.25 microg/cm3 throughout. For the same compound, in the assay on Rattus norvegicus, the inhibition in vivo at 50 mg/kg is 40.6%.

Regarding `Fc1cc(-c2nc3scc(-c4ccc(Cl)cc4Cl)n3n2)c(Cl)cc1Cl`, the “Diameter of inhibition zone” value in the assay on Pseudomonas aeruginosa [1] came out at 13 mm; in the assay on Candida albicans [21], 10 mm; in the assay with Aspergillus niger [4], 14 mm; in the assay with Escherichia coli [5], 11 mm; with Klebsiella pneumoniae [12] it was 13 mm; in the assay on Staphylococcus aureus [16], 14 mm. Also, the “Diameter of inhibition zone” value in the assay on Aspergillus fumigatus [17] was 8 mm; with Streptococcus pyogenes [20], 15 mm; in the assay on Talaromyces marneffei [22], 12 mm. Moreover, the Time came out at 8.96 in the assay with Mus musculus [2] and 9.6 in the assay on Mus musculus [11]. Besides, the MIC is 12.5 microg/cm3 against Aspergillus niger [3]; 12.5 microg/cm3 against Escherichia coli [6]; 6.25 microg/cm3 against Streptococcus pyogenes [7]; greater than 100 microg/cm3 in [8]; 12.5 microg/cm3 against Klebsiella pneumoniae [9]; 25 microg/cm3 in the assay on Aspergillus fumigatus [10]. Also, the MIC is listed as 12.5 microg/cm3 against Pseudomonas aeruginosa [13], 25 microg/cm3 against Candida albicans [14], 12.5 microg/cm3 against Talaromyces marneffei [18] and 12.5 microg/cm3 against Staphylococcus aureus [19]. The inhibition in vivo at 50 mg/kg with Rattus norvegicus is 17.2%.

`C[C@@H]1[C@H](O)[C@@H](C)/C=C/C=C/C=C/C=C/C=C/C=C/C=C/[C@H](O[C@@H]2O[C@H](C)[C@@H](O)[C@H](N)[C@@H]2O)C[C@@H]2O[C@](O)(C[C@@H](O)C[C@@H](O)[C@H](O)CC[C@@H](O)C[C@@H](O)CC(=O)O[C@H]1C)C[C@H](O)[C@H]2C(=O)O` [AMPHOTERICIN B]: the “Diameter of inhibition zone” value with Candida albicans [21] came to 20 mm; with Aspergillus niger [4], 25 mm; in [15], 19 mm; with Aspergillus fumigatus [17], 21 mm; in the assay with Talaromyces marneffei [22], 23 mm. The MIC in the assay with Aspergillus niger [3] was 12.5 microg/cm3; in assay [8], 6.25 microg/cm3; in the assay on Aspergillus fumigatus [10] it was 6.25 microg/cm3; in the assay on Candida albicans [14], 6.25 microg/cm3; with Talaromyces marneffei [18], 6.25 microg/cm3.

In the case of `O=C(O)c1cn(C2CC2)c2cc(N3CCNCC3)c(F)cc2c1=O` [CIPROFLOXACIN], the “Diameter of inhibition zone” value is on record as 32 mm with Pseudomonas aeruginosa [1]; 29 mm in the assay with Escherichia coli [5]; 21 mm with Klebsiella pneumoniae [12]; 23 mm in the assay on Staphylococcus aureus [16]; 25 mm with Streptococcus pyogenes [20]. The MIC against Escherichia coli [6], with Streptococcus pyogenes [7], in the assay on Klebsiella pneumoniae [9], in the assay on Pseudomonas aeruginosa [13] and against Staphylococcus aureus [19] was 6.25 microg/cm3 in each case.

In general, inhibition in vivo refers to the percentage by which the read-out fell short of the control.
